Experimental data published in ChEMBL document CHEMBL1201862, “PubChem BioAssay data set” (2004).
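All cell lines were grown in 96-well plates and treated with compound for 48 hours. GI50 marks 50% less growth.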 Activity calls are given as the source filed them. No stated cut-off is given here; in the data, active = GI50 up to about 1.1 µM and inactive = higher.

Tests used:
Experiment in all cases: growth of human tumour cells (NCI), 48 h
M14 = test system: M14
SN12C = test system: SN12C
SR = test system: SR
786-0 = test system: 786-0
NCI-H226 = test system: NCI-H226
T47D = test system: T47D
ACHN = test system: ACHN
IGROV-1 = test system: IGROV-1
CCRF-CEM = test system: CCRF-CEM
SK-MEL-5 = test system: SK-MEL-5
SK-OV-3 = test system: SK-OV-3
NCI-H460 = test system: NCI-H460
SW-620 = test system: SW-620
UACC-62 = test system: UACC-62
EKVX = test system: EKVX
NCI-H23 = test system: NCI-H23
A498 = test system: A498
OVCAR-5 = test system: OVCAR-5
Malme-3M = test system: Malme-3M
HOP-92 = test system: HOP-92

Measured: GI50

Cn1c(-c2ccc(-c3cc(-c4cccs4)c(-c4cccs4)n3C)cc2)cc(-c2cccs2)c1-c1cccs1
inactive: M14 > 100 µM | SN12C > 100 µM | SR > 100 µM | 786-0 > 100 µM | NCI-H226 > 100 µM | T47D > 100 µM | ACHN > 100 µM | IGROV-1 > 100 µM | CCRF-CEM > 100 µM | SK-MEL-5 > 100 µM | SK-OV-3 > 100 µM | NCI-H460 > 100 µM | SW-620 > 100 µM | UACC-62 > 100 µM | EKVX > 100 µM

CC(=O)N1c2ccccc2Sc2cc(C(O)(C(F)(F)F)C(F)(F)F)ccc21
inactive: NCI-H23 > 10 µM | M14 > 10 µM | SN12C > 10 µM | A498 > 10 µM | 786-0 > 10 µM | NCI-H226 > 10 µM | T47D 9.86 µM | ACHN > 10 µM | IGROV-1 > 10 µM | CCRF-CEM > 10 µM | SK-MEL-5 7.26 µM | OVCAR-5 > 10 µM | Malme-3M > 10 µM | SK-OV-3 > 10 µM | NCI-H460 > 10 µM | HOP-92 4.66 µM | SW-620 > 10 µM | UACC-62 > 10 µM | EKVX > 10 µM

NC1CCN(c2nc3ccccc3c3c2CCCC3)CC1
inactive: NCI-H23 14.1 µM | M14 1.99 µM | SN12C 8.67 µM | A498 10.3 µM | 786-0 3.8 µM | NCI-H226 10.2 µM | T47D 2.18 µM | ACHN 8.87 µM | IGROV-1 6.41 µM | CCRF-CEM 4.28 µM | SK-MEL-5 2.57 µM | OVCAR-5 6.32 µM | Malme-3M 7.41 µM | SK-OV-3 12.6 µM | NCI-H460 3.5 µM | HOP-92 4.99 µM | SW-620 2.75 µM | UACC-62 1.95 µM | EKVX 5.9 µM

O=C1OC([C@H](O)c2cccnc2)c2ccccc21 (stereo partly drawn)
inactive: NCI-H23 > 10 µM | M14 > 10 µM | SN12C > 10 µM | SR > 10 µM | 786-0 > 10 µM | NCI-H226 > 10 µM | T47D > 10 µM | ACHN > 10 µM | IGROV-1 > 10 µM | CCRF-CEM > 10 µM | SK-MEL-5 > 10 µM | OVCAR-5 > 10 µM | SK-OV-3 > 10 µM | NCI-H460 > 10 µM | HOP-92 > 10 µM | SW-620 > 10 µM | UACC-62 > 10 µM | EKVX > 10 µM

CCOC(=O)c1c(-c2ccccc2)nc2c(OC)nccn12
inactive: NCI-H23 > 100 µM | M14 > 100 µM | SN12C > 100 µM | SR > 100 µM | 786-0 > 100 µM | NCI-H226 > 100 µM | T47D 25.4 µM | IGROV-1 > 100 µM | CCRF-CEM > 100 µM | SK-MEL-5 61.1 µM | Malme-3M > 100 µM | SK-OV-3 > 100 µM | NCI-H460 > 100 µM | SW-620 > 100 µM | UACC-62 > 100 µM | EKVX > 100 µM

COC1(C)/C=N/CC(C)(C)NC(=O)C(C)(OC)/C=N/CC(C)(C)NC1=O (stereo not drawn)
inactive: NCI-H23 > 10 µM | M14 > 10 µM | SN12C > 10 µM | SR > 10 µM | 786-0 > 10 µM | T47D > 10 µM | ACHN > 10 µM | IGROV-1 > 10 µM | CCRF-CEM > 10 µM | SK-MEL-5 > 10 µM | Malme-3M > 10 µM | SK-OV-3 > 10 µM | HOP-92 > 10 µM | SW-620 > 10 µM | UACC-62 > 10 µM | EKVX > 10 µM
